Data: the Kinase Knowledgebase extract (Sharma et al. 2016)

How the values were obtained:
MAPK14 (human) [1] = target: MAPK14 (human) (UniProt Q16539); experiment: Inhibition of HFF Cell Proliferation
MAPK14 (C3H mice) = experiment: Inhibition of LPS Stimulated TNF Production in C3H Mice; conditions: dose or concentration not given here
MAPK14 = MAPK14 (UniProt Q16539); experiment: Inhibition of p38 Kinase Activity
MAPK14 (human) [2] = target: MAPK14 (human) (UniProt Q16539); experiment: Inhibition of TNF Release from Human Peripheral Blood Mononuclear Cells; conditions: pbmc

Sequence of MAPK14 (human) (Q16539 whole entry, looked up): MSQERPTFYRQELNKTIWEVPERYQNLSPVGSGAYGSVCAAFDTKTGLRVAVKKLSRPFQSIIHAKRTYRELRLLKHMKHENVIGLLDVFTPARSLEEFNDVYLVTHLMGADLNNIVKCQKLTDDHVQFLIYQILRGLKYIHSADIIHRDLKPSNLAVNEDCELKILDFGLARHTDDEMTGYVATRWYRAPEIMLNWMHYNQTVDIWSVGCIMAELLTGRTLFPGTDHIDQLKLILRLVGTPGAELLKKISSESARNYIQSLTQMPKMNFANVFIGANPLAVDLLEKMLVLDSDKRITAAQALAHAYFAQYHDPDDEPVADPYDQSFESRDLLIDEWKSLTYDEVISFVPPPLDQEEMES
Sequence of MAPK14 (Q16539 whole entry, looked up): as above

SMILES	IC50 (MAPK14) [nM]	further results
CCCN(CCC)CCNc1nccc(-c2c(-c3ccc(F)c(Cl)c3)nn3cc(C(F)(F)F)ccc23)n1	100 to 1000	–
Fc1ccc(-c2nn3cc(C(F)(F)F)ccc3c2-c2ccnc(NCCCN3CCCCC3)n2)cc1Cl	100 to 1000	–
FC(F)(F)c1ccc(-c2nn3cc(C(F)(F)F)ccc3c2-c2ccnc(NCCCN3CCCCC3)n2)cc1	1000 to 10000	–
CCCN1CCN(CCNc2nccc(-c3c(-c4cccc(Cl)c4)nn4cc(C(F)(F)F)ccc34)n2)CC1	10 to 100	–
CCCN(CCC)CCNc1nccc(-c2c(-c3ccc(C(F)(F)F)cc3)nn3cc(C(F)(F)F)ccc23)n1	1000 to 10000	–
N#Cc1ccc2c(-c3ccnc(NC4CC4)n3)c(-c3ccc(F)cc3)nn2c1	< 500	inhibition (MAPK14 (C3H mice)): 52%
Fc1ccc(-c2nn3cc(C(F)(F)F)ccc3c2-c2ccncc2)cc1	< 500	–
CCN(CC)CCCCNc1nccc(-c2c(-c3cccc(Cl)c3)nn3cc(C(F)(F)F)ccc23)n1	10 to 100	–
CSc1nccc(-c2c(-c3ccc(F)cc3)nn3ccccc23)n1	< 500	inhibition (MAPK14 (C3H mice)): 56%
CN(C)CCCNc1nccc(-c2c(-c3ccc(F)c(Cl)c3)nn3cc(C(F)(F)F)ccc23)n1	10 to 100	–
FC(F)(F)c1ccc2c(-c3ccnc(NCCN4CCCCC4)n3)c(-c3cccc(Cl)c3)nn2c1	100 to 1000	–
CCCN(CCC)CCNc1nccc(-c2c(-c3cccc(Cl)c3)nn3cc(C(F)(F)F)ccc23)n1	100 to 1000	–
Fc1ccc(-c2nn3ccccc3c2-c2ccncc2)cc1	< 500	IC50 (MAPK14 (human) [1]): > 50000 nM; inhibition (MAPK14 (C3H mice)): 65%
CN1CCN(CCCNc2nccc(-c3c(-c4ccc(F)cc4)nn4cc(C(F)(F)F)ccc34)n2)CC1	10 to 100	–
FC(F)(F)c1ccc(-c2nn3cc(C(F)(F)F)ccc3c2-c2ccnc(NCCN3CCCC3)n2)cc1	1000 to 10000	–
OCc1ccn2nc(-c3ccc(F)cc3)c(-c3ccncc3)c2c1	< 500	–

SMILES	IC50 (MAPK14) [nM]	further results
CN(C)CCCNc1nccc(-c2c(-c3ccc(F)cc3)nn3cc(C(F)(F)F)ccc23)n1	100 to 1000	–
Fc1ccc(-c2nn3ccccc3c2-c2ccnc(NCc3cccnc3)c2)cc1	< 500	IC50 (MAPK14 (human) [1]): 5000 to 50000 nM
NC(=O)c1ccc2c(-c3ccnc(NCCCN4CCCCC4)n3)c(-c3ccc(F)cc3)nn2c1	< 500	–
CC(C)N(CCNc1nccc(-c2c(-c3ccc(F)c(Cl)c3)nn3cc(C(F)(F)F)ccc23)n1)C(C)C	100 to 1000	–
Fc1ccc(-c2nn3cc(C(F)(F)F)ccc3c2-c2ccnc(NCCN3CCCC3)n2)cc1Cl	100 to 1000	–
Fc1ccc(-c2nn3cc(C(F)(F)F)ccc3c2-c2ccnc(NCCN3CCCCC3)n2)cc1Cl	100 to 1000	–
FC(F)(F)c1ccc(-c2nn3cc(C(F)(F)F)ccc3c2-c2ccnc(NCCN3CCCCC3)n2)cc1	1000 to 10000	–
FC(F)(F)c1ccc2c(-c3ccnc(NCCCN4CCOCC4)n3)c(-c3cccc(Cl)c3)nn2c1	10 to 100	–
CN1CCN(CCCNc2nccc(-c3c(-c4ccc(F)c(Cl)c4)nn4cc(C(F)(F)F)ccc34)n2)CC1	10 to 100	–
Fc1ccc(-c2nn3cc(C(F)(F)F)ccc3c2-c2ccnc(Oc3ccccc3)n2)cc1	< 500	–
CN(C)CCCNc1nccc(-c2c(-c3cccc(Cl)c3)nn3cc(C(F)(F)F)ccc23)n1	10 to 100	–
CCN(CC)CCNc1nccc(-c2c(-c3ccc(C(F)(F)F)cc3)nn3cc(C(F)(F)F)ccc23)n1	1000 to 10000	–
Nc1nccc(-c2c(-c3ccc(F)cc3)nn3ccccc23)n1	< 500	inhibition (MAPK14 (C3H mice)): 62%
Fc1ccc(-c2nn3cc(C(F)(F)F)ccc3c2-c2ccnc(NC3CC3)n2)cc1	< 500	inhibition (MAPK14 (C3H mice)): 24%
Nc1ncccc1C(=O)OCc1ccn2nc(-c3ccc(F)cc3)c(-c3ccncc3)c2c1	< 500	IC50 (MAPK14 (human) [1]): > 50000 nM
FC(F)(F)c1ccc2c(-c3ccnc(NCCCCN4CCCC4)n3)c(-c3cccc(Cl)c3)nn2c1	10 to 100	–

Further lines, with some results ahead:

IC50 (MAPK14) [nM]	SMILES	further results
< 500	OCCCNc1cc(-c2c(-c3ccc(F)cc3)nn3ccccc23)ccn1	IC50 (MAPK14 (human) [1]): > 50000 nM; inhibition (MAPK14 (C3H mice)): 45%
< 500	Fc1ccc(-c2nn3ccccc3c2-c2ccnc(NC3CC3)n2)cc1	–
500 to 5000	COc1ccn2nc(-c3ccc(F)cc3)c(-c3ccncc3)c2c1	inhibition (MAPK14 (C3H mice)): 11%
1000 to 10000	CN(C)CCCNc1nccc(-c2c(-c3ccc(C(F)(F)F)cc3)nn3cc(C(F)(F)F)ccc23)n1	–
100 to 1000	FC(F)(F)c1ccc2c(-c3ccnc(NCCN4CCCC4)n3)c(-c3cccc(Cl)c3)nn2c1	–
< 500	NC(=O)c1ccc2c(-c3ccnc(NCCCO)n3)c(-c3ccc(F)cc3)nn2c1	–
100 to 1000	Fc1ccc(-c2nn3cc(C(F)(F)F)ccc3c2-c2ccnc(NCCCN3CCOCC3)n2)cc1Cl	–
1000 to 10000	CCCN1CCN(CCNc2nccc(-c3c(-c4ccc(C(F)(F)F)cc4)nn4cc(C(F)(F)F)ccc34)n2)CC1	–
< 500	CC(C)Nc1nccc(-c2c(-c3ccc(F)cc3)nn3cc(C(F)(F)F)ccc23)n1	inhibition (MAPK14 (C3H mice)): 45%
< 500	Fc1ccc(-c2nn3ccccc3c2-c2ccnc(NCCc3cnc[nH]3)n2)cc1	–
10 to 100	Fc1ccc(-c2nn3cc(C(F)(F)F)ccc3c2-c2ccnc(NCCN3CCOCC3)n2)cc1Cl	–
1000 to 10000	FC(F)(F)c1ccc(-c2nn3cc(C(F)(F)F)ccc3c2-c2ccnc(NCCN3CCOCC3)n2)cc1	–
10 to 100	CCCN1CCN(CCNc2nccc(-c3c(-c4ccc(F)c(Cl)c4)nn4cc(C(F)(F)F)ccc34)n2)CC1	–
< 500	Cc1ccc(C)c(Oc2nccc(-c3c(-c4ccc(F)cc4)nn4cc(C(F)(F)F)ccc34)n2)c1	–
100 to 1000	Fc1ccc(-c2nn3cc(C(F)(F)F)ccc3c2-c2ccnc(NCCN3CCCCCC3)n2)cc1Cl	–
100 to 1000	CCN(CC)CCNc1nccc(-c2c(-c3cccc(Cl)c3)nn3cc(C(F)(F)F)ccc23)n1	–
< 500	Fc1ccc(-c2nn3ccccc3c2-c2ccnc(NCc3ccccn3)n2)cc1	inhibition (MAPK14 (C3H mice)): 87%
< 500	Fc1ccc(-c2nn3ccccc3c2-c2ccnc(NCc3ccc(Cl)cc3)c2)cc1	IC50 (MAPK14 (human) [2]): < 500 nM; inhibition (MAPK14 (C3H mice)): 42%
< 500	NC(=O)c1ccc2c(-c3ccnc(NC4CC4)n3)c(-c3ccc(F)cc3)nn2c1	IC50 (MAPK14 (human) [2]): < 500 nM; inhibition (MAPK14 (C3H mice)): 90%
10 to 100	CCN(CC)CCCCNc1nccc(-c2c(-c3ccc(F)c(Cl)c3)nn3cc(C(F)(F)F)ccc23)n1	–
1000 to 10000	FC(F)(F)c1ccc(-c2nn3cc(C(F)(F)F)ccc3c2-c2ccnc(NCCCN3CCOCC3)n2)cc1	–
< 500	OCCCNc1nccc(-c2c(-c3ccc(F)cc3)nn3cc(C(F)(F)F)ccc23)n1	–
< 500	Nc1nccc(-c2c(-c3ccc(F)cc3)nn3cc(C(F)(F)F)ccc23)n1	–
100 to 1000	FC(F)(F)c1ccc2c(-c3ccnc(NCCN4CCCCCC4)n3)c(-c3cccc(Cl)c3)nn2c1	–
< 500	CCCCNc1nccc(-c2c(-c3ccc(F)cc3)nn3ccccc23)n1	inhibition (MAPK14 (C3H mice)): 88%
500 to 5000	Fc1ccc(-c2nn3ccccc3c2-c2ccncn2)cc1	IC50 (MAPK14 (human) [1]): > 50000 nM; inhibition (MAPK14 (C3H mice)): 67%
